Consider 28 compounds from patent US20220348564A1, “PHENYL-[1,3]DIOXOLO[4,5-C]PYRIDINYL-PHENYL-, PHENYL-[1,3]DIOXOLO[4,5-C]PYRIDINYL-HETEROARYL-, OR PHENYL-(1,3)DIOXO[4,5-C]PYRIDINYL-PIPERIDINYL-METHYL-OXETANYLMETHYL-1H-BENZO[D]IMIDAZOLE-CARBOXYLIC ACID DERIVATIVES AND METHODS OF USING SAME” (Eccogene (Shanghai) Co., Ltd., priority 2021, published 2022).

Molecules are shown by their SMILES. Bounds are passed on as bounds.

This test deals with T1, human GLP-1 (Homo sapiens, UniProt P43220).
T1 construct: expressed in transfected cells
T1 sequence (P43220 24-463): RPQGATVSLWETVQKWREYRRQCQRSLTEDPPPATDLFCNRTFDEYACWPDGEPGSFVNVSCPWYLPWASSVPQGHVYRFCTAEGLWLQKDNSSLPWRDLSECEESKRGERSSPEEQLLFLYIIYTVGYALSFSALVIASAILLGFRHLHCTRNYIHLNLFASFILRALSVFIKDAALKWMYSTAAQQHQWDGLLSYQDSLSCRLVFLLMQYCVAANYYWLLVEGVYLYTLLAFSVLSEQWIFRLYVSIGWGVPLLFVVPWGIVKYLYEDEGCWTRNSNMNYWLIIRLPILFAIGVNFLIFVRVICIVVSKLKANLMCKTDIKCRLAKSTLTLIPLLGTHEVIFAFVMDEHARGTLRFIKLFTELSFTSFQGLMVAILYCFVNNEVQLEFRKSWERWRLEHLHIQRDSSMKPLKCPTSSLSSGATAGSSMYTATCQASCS
Briefly: h-GLP-1 activity assay (Cisbio cAMP Gs dynamic kit, HTRF). The class given is cell-based. The note with it: HEK293 cells with stable expression of human GLP-1, relative EC50, 10 nM human GLP-1 = 100% response. How it is done:
Human GLP-1 agonizing activity was detected in HEK293 cells with stable expression of human GLP-1 by Cisbio cAMP Gs dynamic kit (Catalog #62AM4PEC) according to manufacturer's protocol. Briefly, cells were collected and resuspended in assay buffer containing 0.1% BSA and 0.5 mM of IBMX at concentration to 2.5×10^5 cells/mL. Two μL 5× compound solution and 8 μL cell suspension were added to each well of low-volume 384 white assay plate. After 30 min incubation at 37° C., 5 μL cAMP-d2 working solution and 5 μL anti-cAMP antibody-cryptate were added to each well, and incubate at room temperature for 1 hr. Series dilution of cAMP was used as standard. Human GLP-1 (7-37) was used as positive control and 10 nM human GLP-1 was set as 100% response. HTRF signals were read at 665 and 615 nm with EnVision plate reader and calculated cAMP concentration by intrapolation to the standard curve. The EC50 value of the tested compounds was calculated by fitting the dose response curve using a 4-parameter non-linear regression routine and relative EC50 was presented in Table S.
For orientation: Time-resolved FRET reads energy transfer from a long-lived donor to a nearby acceptor.
The EC50 is the concentration at which the effect is half-maximal. Read a low EC50 as an effect from little substance. Consider `C[C@]1(c2ccc(C(F)(F)F)cn2)Oc2cccc(C3=CCC(Cc4nc5c(F)cc(C(=O)O)cc5n4C[C@@H]4CCO4)OC3)c2O1` (single isomer, unassigned) [Compound 122], for which the EC50 is over 100 nM. With `CC1(c2ccc(Cl)cc2F)Oc2cccc(C3CCC(Cc4nc5ccc(C(=O)O)cc5n4C[C@@H]4CCO4)CO3)c2O1` (mixture of isomers) [Compound 58, 2-((6-(2-(4-chloro-2-fluorophenyl)-2-methylbenzo[d][1,3]dioxol-4-yl)tetrahydro-2H-pyran-3-yl)methyl)-1-(((S)-oxetan-2-yl)methyl)-1H-benzo[d]imidazole-6-carboxylic acid] the figure was over 100 nM; with `C[C@]1(c2ccc(Cl)cn2)Oc2cccc(C3=CC[C@@H](Cc4nc5ccc(C(=O)O)cc5n4Cc4cncs4)OC3)c2O1` (single isomer, unassigned) [Compound 113], 20 to 100 nM.

Consider `C[C@@]1(c2ccc(Cl)cc2F)Oc2cccc(C3=CC[C@H](Cc4nc5ccc(C(=O)O)cc5n4C[C@@H]4CCO4)OC3)c2O1` (single isomer, unassigned) [Compound 106], for which the half-maximal effective concentration (EC50) is over 100 nM. The same measure for `CC1(c2ccc(Cl)cc2F)Oc2cccc(-c3ccc(Cc4nc5ccc(C(=O)O)cc5n4C[C@@H]4CCO4)nc3)c2O1` (mixture of isomers) [Compound 16, 2-((5-(2-(4-chloro-2-fluorophenyl)-2-methylbenzo[d][1,3]dioxol-4-yl)pyridin-2-yl)methyl)-1-(((S)-oxetan-2-yl)methyl)-1H-benzo[d]imidazole-6-carboxylic acid]: under 20 nM; for `N#Cc1ccc(COc2cccc([C@@H]3CC[C@H](Cc4nc5ccc(C(=O)O)cc5n4C[C@@H]4CCO4)OC3)n2)c(F)c1` (single isomer, unassigned) [Compound 32]: under 20 nM; for `N#Cc1ccc(COc2cccc([C@H]3CC[C@H](Cc4nc5ccc(C(=O)O)cc5n4C[C@@H]4CCO4)OC3)n2)c(F)c1` (single isomer, unassigned) [Compound 30]: under 20 nM. With `CCC1(c2ccc(Cl)cc2F)Oc2cccc(-c3ccc(Cc4nc5ccc(C(=O)O)cc5n4C[C@@H]4CCO4)cc3)c2O1` (mixture of isomers) [Compound 7, 2-(4-(2-(4-chloro-2-fluorophenyl)-2-ethylbenzo[d][1,3]dioxol-4-yl)benzyl)-1-(((S)-oxetan-2-yl)methyl)-1H-benzo[d]imidazole-6-carboxylic acid] the figure was over 100 nM.

The compound `C[C@]1(c2ccc(Cl)cn2)Oc2cccc(C3=CC[C@H](Cc4nc5c(F)cc(C(=O)O)cc5n4Cc4cscn4)OC3)c2O1` (single isomer, unassigned) [Compound 116] yielded an EC50 of under 20 nM. The same measure for `Cc1cc(Cc2nc3ccc(C(=O)O)cc3n2C[C@@H]2CCO2)ccc1-c1cccc2c1OC(C)(c1ccc(Cl)cc1F)O2` (mixture of isomers) [Compound 43, 2-(4-(2-(4-chloro-2-fluorophenyl)-2-methylbenzo[d][1,3]dioxol-4-yl)-3-methylbenzyl)-1-(((S)-oxetan-2-yl)methyl)-1H-benzo[d]imidazole-6-carboxylic acid]: under 20 nM. `CC1(c2ccc(Cl)cn2)COc2cccc(C3CCN(Cc4nc5ccc(C(=O)O)cc5n4C[C@@H]4CCO4)CC3)c2OC1` (mixture of isomers) [Compound 86, 2-((4-(3-(5-chloropyridin-2-yl)-3-methyl-3,4-dihydro-2H-benzo[b][1,4]dioxepin-6-yl)piperidin-l-yl)methyl)-1-(((S)-oxetan-2-yl)methyl)-1H-benzo[d]imidazole-6-carboxylic acid] gave an EC50 of over 100 nM. Turning to `O=C(O)c1ccc2nc(CC34CCC(c5ccnc(OCc6ccc(Cl)cc6F)n5)(CC3)CO4)n(C[C@@H]3CCO3)c2c1` [Compound 35, (S)-2-((4-(2-((4-chloro-2-fluorobenzyl)oxy)pyrimidin-4-yl)-2-oxabicyclo[2.2.2]octan-1-yl)methyl)-1-(oxetan-2-ylmethyl)-1H-benzo[d]imidazole-6-carboxylic acid], the concentration giving a half-maximal response (EC50) was over 100 nM. With `O=C(O)c1ccc2nc(CC3CC=C(c4cccc5c4OC(c4ccc(Cl)cc4F)CO5)CO3)n(C[C@@H]3CCO3)c2c1` (mixture of isomers) [Compound 70, 2-((5-(3-(4-chloro-2-fluorophenyl)-2,3-dihydrobenzo[b][1,4]dioxin-5-yl)-3,6-dihydro-2H-pyran-2-yl)methyl)-1-(((S)-oxetan-2-yl)methyl)-1H-benzo[d]imidazole-6-carboxylic acid] the figure was 20 to 100 nM. Regarding `C[C@@]1(c2ccc(Cl)cn2)Oc2cccc(C34COC(Cc5nc6ccc(C(=O)O)cc6n5C[C@@H]5CCO5)CC3C4)c2O1` (single isomer, unassigned) [Compound 75], the EC50 is over 100 nM. The same measure for `N#Cc1ccc(COc2nccc(C34CCC(Cc5nc6ccc(C(=O)O)cc6n5C[C@@H]5CCO5)(CC3)CC4)n2)c(F)c1` [Compound 34, (S)-2-((4-(2-((4-cyano-2-fluorobenzyl)oxy)pyrimidin-4-yl)bicyclo[2.2.2]octan-1-yl)methyl)-1-(oxetan-2-ylmethyl)-1H-benzo[d]imidazole-6-carboxylic acid]: over 100 nM.

`C[C@]1(c2ccc(Cl)cn2)Oc2cccc(-c3ccc(Cc4nc5ccc(C(=O)O)cc5n4C[C@@H]4CCO4)cc3)c2O1` (single isomer, unassigned) [Compound 40] displayed an EC50 of under 20 nM. The same measure for `C[C@@]1(c2ccc(Cl)cn2)Oc2cccc([C@H]3CC[C@@H](Cc4nc5ccc(C(=O)O)cc5n4C[C@@H]4CCO4)OC3)c2O1` (single isomer, unassigned) [Compound 102]: over 100 nM. The same measure for `CC1(c2ccc(Cl)cc2F)Oc2cccc(C3CC4(C3)CN(Cc3nc5ccc(C(=O)O)cc5n3C[C@@H]3CCO3)C4)c2O1` (mixture of isomers) [Compound 23, 2-((6-(2-(4-chloro-2-fluorophenyl)-2-methylbenzo[d][1,3]dioxol-4-yl)-2-azaspiro[3.3]heptan-2-yl)methyl)-1-(((S)-oxetan-2-yl)methyl)-1H-benzo[d]imidazole-6-carboxylic acid]: over 100 nM; for `O=C(O)c1ccc2nc(Cc3cc(F)c(-c4cccc5c4OC(c4ccc(Cl)cc4F)CO5)cc3F)n(C[C@@H]3CCO3)c2c1` (mixture of isomers) [Compound 60, 2-(4-(3-(4-chloro-2-fluorophenyl)-2,3-dihydrobenzo[b][1,4]dioxin-5-yl)-2,5-difluorobenzyl)-1-(((S)-oxetan-2-yl)methyl)-1H-benzo[d]imidazole-6-carboxylic acid]: under 20 nM; for `N#Cc1ccc(COc2cccc(N3CCC(Oc4nc5ccc(C(=O)O)cc5n4C[C@@H]4CCO4)CC3)n2)c(F)c1` [Compound 80, (S)-2-((1-(6-((4-cyano-2-fluorobenzyl)oxy)pyridin-2-yl)piperidin-4-yl)oxy)-1-(oxetan-2-ylmethyl)-1H-benzo[d]imidazole-6-carboxylic acid]: over 100 nM. Regarding `O=C(O)c1ccc2nc(CCN3CC(c4cccc(OCc5ccc(Cl)cc5F)n4)C3)n(C[C@@H]3CCO3)c2c1` [Compound 82, (S)-2-(2-(3-(6-((4-chloro-2-fluorobenzyl)oxy)pyridin-2-yl)azetidin-1-yl)ethyl)-1-(oxetan-2-ylmethyl)-1H-benzo[d]imidazole-6-carboxylic acid], the EC50 lay in the range of 20 to 100 nM. The same measure for `C[C@]1(c2ccc(Cl)cn2)Oc2cccc(C3=CC[C@@H](Cc4nc5c(F)cc(C(=O)O)cc5n4C[C@@H]4CCO4)OC3)c2O1` (single isomer, unassigned) [Compound 119]: 20 to 100 nM. Turning to `O=C(O)c1ccc2nc(CN3CC=C(c4cccc5c4OC(c4ccc(Cl)cc4F)C(=O)N5)CC3)n(C[C@@H]3CCO3)c2c1` (mixture of isomers) [Compound 81, 2-((4-(2-(4-chloro-2-fluorophenyl)-3-oxo-3,4-dihydro-2H-benzo[b][1,4]oxazin-8-yl)-3,6-dihydropyridin-1(2H)-yl)methyl)-1-(((S)-oxetan-2-yl)methyl)-1H-benzo[d]imidazole-6-carboxylic acid], the EC50 is over 100 nM. In turn, `C[C@@]1(c2ccc(C3CC3)cn2)Oc2cccc(C3=CC[C@H](Cc4nc5c(F)cc(C(=O)O)cc5n4C[C@@H]4CCO4)OC3)c2O1` (single isomer, unassigned) [Compound 123] gave a concentration for a half-maximal effect (EC50) of under 20 nM.

On to `C[C@@]1(c2ccc(Cl)cn2)Oc2cccc(C3=CC[C@@H](Cc4nc5ccc(C(=O)O)cc5n4C[C@@H]4CCO4)OC3)c2O1` (single isomer, unassigned) [Compound 79], for which the EC50 was over 100 nM. With `O=C(O)c1ccc2nc(C[C@@H]3CC[C@@H](c4cccc(OCc5ccc(Cl)cc5F)n4)CO3)n(Cc3cncs3)c2c1` (single isomer, unassigned) [Compound 29] the figure was over 100 nM; with `C[C@@]1(c2ccc(Cl)cn2)Oc2cccc(C3CCN(Cc4nc5ccc(C(=O)O)cc5n4C[C@@H]4CCO4)CC3(F)F)c2O1` (single isomer, unassigned) [Compound 76], under 20 nM. The same measure for `CC1(c2ccc(Cl)cc2F)Oc2c(cccc2C2CCN(Cc3nc4ccc(C(=O)O)cc4n3C[C@@H]3CCO3)CC2)NC1=O` (mixture of isomers) [Compound 68, 2-((4-(2-(4-chloro-2-fluorophenyl)-2-methyl-3-oxo-3,4-dihydro-2H-benzo[b][1,4]oxazin-8-yl)piperidin-1-yl)methyl)-1-(((S)-oxetan-2-yl)methyl)-1H-benzo[d]imidazole-6-carboxylic acid]: 20 to 100 nM.
